Assay results reported in article PMC4890124, “Antimicrobial activity, improved cell selectivity and mode of action of short PMAP-36-derived peptides against bacteria and Candida” (Scientific Reports, 2016).
≈ marks a conversion by molar mass, not a printed value. Read-outs that look alike come from different tables or passages of the source. Marks after values point to notes of the source that are not given here. Peptide text beside a SMILES is read from it.

Experiments:
[1] = system: Salmonella enterica serovar typhimurium C77-31; assay type: cell-based; details: three independent experiments; for MBC S. typhi C77-31: lowest concentration killing at least 99.9% of initial inoculum
Method: (§1) The peptide antibacterial activity was determined against both gram-positive and gram-negative bacteria strains, including Escherichia coli ATCC 25922, Escherichia coli UB1005, Salmonella enterica serovar typhimurium C77-31, Staphylococcus aureus ATCC 29213, Staphylococcus aureus ATCC 25923, Bacillus subtilis CMCC 63501, and Staphylococcus epidermidis ATCC 12228. Clinically isolated Escherichia coli EC183 was provided by the 4th Affiliated Hospital of Harbin Medical University. MIC of the peptides was measured using a modified version of the National Committee for Clinical Laboratory Standards (NCCLS) broth microdilution method as described previously. The bacterial strains were inoculated and grown to mid-log phase in fresh Mueller-Hinton broth (MHB) at 37 °C. Bacterial inoculum suspensions were prepared at a final concentration of approximately 1 × 10^5 CFU/ml. Peptides were 2-fold serially diluted to make different concentrations, from 0.5 to 256 μM. Equal volumes of inoculum suspensions were then added to each well of a sterile 96-well plate with different concentrations of peptides, and the plate was incubated for 18 h at 37 °C. Broth with or without bacteria was employed as the positive control or the negative control, respectively. MIC was defined as the lowest concentration of peptides that prevented visible turbidity by visual inspection. […] After overnight incubation at 37 °C, MBC was defined as the lowest concentration of peptides that killed at least 99.9% of the initial inoculums. Experiments were performed in triplicate with three biological replicates.

[2] = system: Staphylococcus epidermidis ATCC 12228; assay type: cell-based; details: ATCC 12228, 18 h
Method: as §1

[3] = system: Escherichia coli ATCC 25922; assay type: cell-based
Method: as §1

[4] = system: Clinically isolated Escherichia coli EC183; assay type: cell-based
Method: as §1

[5] = system: Bacillus subtilis CMCC 63501; assay type: cell-based
Method: as §1

Escherichia coli UB1005 [6] = assay type: cell-based
Method: as §1

[7] = system: Staphylococcus aureus ATCC 29213; assay type: cell-based
Method: as §1

[8] = system: Staphylococcus aureus ATCC 25923; assay type: cell-based; details: ATCC 25923, 18 h
Method: as §1

[9] = system: C. albicans CA276 (clinical isolate); assay: microbe, parasite or virus in culture; assay type: cell-based, Candida albicans
From the text: (§2) The antifungal activities were monitored in RPMI-1640 broth medium by a 2-fold microdilution assay according to the Clinical and Laboratory Standards Institute (CLSI) methods. The Candida albicans CGMCC 2.2086, Candida tropicalis CGMCC 2.1975, and Candida krusei CGMCC 2.1857 fungal strains were purchased from the China General Microbiological Culture Collection Center (CGMCC, Beijing, China). Clinically isolated Candida albicans CA2761 was provided by the 4th Affiliated Hospital of Harbin Medical University. Briefly, fungal strains were cultured on YPD agar plates (1% peptone, 0.5% yeast extract, 1% glucose and 2% agar) at 28 °C to prepare Candida suspensions with a turbidity of a 0.5 McFarland standard. A total of 50 μl inoculum cell suspension diluted in RPMI-1640 broth medium was added to an equal volume of peptide solution to achieve a final peptide concentrations ranging from 0.25 μM to 128 μM in a 96-well plate. Pure broth alone or with inoculum suspensions was used as the negative control or the positive control, respectively. The plate was incubated at 28 °C for 48 h. MIC was considered the lowest concentration at which no fungal growth was visually observed under experimental conditions. […] After 48 h incubation at 28 °C, MFC was defined as the lowest concentration of peptides that killed at least 99.9% of the initial inoculums. Experiments were performed in triplicate with three biological replicates.

[10] = system: Candida albicans CGMCC 2.2086; assay: microbe, parasite or virus in culture; assay type: cell-based
From the text: as §2

[11] = system: Candida tropicalis CGMCC 2.1975; assay: microbe, parasite or virus in culture; assay type: cell-based
From the text: as §2

[12] = system: Candida krusei CGMCC 2.1857; assay: microbe, parasite or virus in culture; assay type: cell-based
From the text: as §2

[13] = system: fungi (four Candida strains); assay: Geometric mean MIC and selectivity index, panel of fungi; assay type: cell-based; details: geometric mean of the MIC values against the fungi of Table 3
From the text: The antifungal activities were monitored in RPMI-1640 broth medium by a 2-fold microdilution assay according to the Clinical and Laboratory Standards Institute (CLSI) methods. The Candida albicans CGMCC 2.2086, Candida tropicalis CGMCC 2.1975, and Candida krusei CGMCC 2.1857 fungal strains were purchased from the China General Microbiological Culture Collection Center (CGMCC, Beijing, China). Clinically isolated Candida albicans CA2761 was provided by the 4th Affiliated Hospital of Harbin Medical University. Briefly, fungal strains were cultured on YPD agar plates (1% peptone, 0.5% yeast extract, 1% glucose and 2% agar) at 28 °C to prepare Candida suspensions with a turbidity of a 0.5 McFarland standard. A total of 50 μl inoculum cell suspension diluted in RPMI-1640 broth medium was added to an equal volume of peptide solution to achieve a final peptide concentrations ranging from 0.25 μM to 128 μM in a 96-well plate. Pure broth alone or with inoculum suspensions was used as the negative control or the positive control, respectively. The plate was incubated at 28 °C for 48 h. MIC was considered the lowest concentration at which no fungal growth was visually observed under experimental conditions. […]
SI values were determined by the ratio of MHC to GM, indicating the specificity of peptides towards pathogens and eukaryotic cells. […]

[14] = system: Staphylococcus epidermidis ATCC 12228; details: values marked c, determined as previously described; cited from earlier work
From the text: Table 2 MIC and MBC of the peptides against bacteria. | column: MIC ^a (MBC ^b) (μM) / Gram-positive bacteria / S. epidermidis 12228

[15] = system: Escherichia coli ATCC 25922; details: values marked c, determined as previously described; cited from earlier work
From the text: Table 2 MIC and MBC of the peptides against bacteria. | column: MIC ^a (MBC ^b) (μM) / Gram-negative bacteria / E. coli 25922

[16] = system: Salmonella enterica serovar typhimurium C77-31; details: values marked c, determined as previously described; cited from earlier work
From the text: Table 2 MIC and MBC of the peptides against bacteria. | column: MIC ^a (MBC ^b) (μM) / Gram-negative bacteria / S. typhi C77-31

Escherichia coli UB1005 [17] = details: values marked c, determined as previously described; cited from earlier work
From the text: Table 2 MIC and MBC of the peptides against bacteria. | column: MIC ^a (MBC ^b) (μM) / Gram-negative bacteria / E. coli 1005

[18] = system: Staphylococcus aureus ATCC 25923; details: values marked c, determined as previously described; cited from earlier work
From the text: Table 2 MIC and MBC of the peptides against bacteria. | column: MIC ^a (MBC ^b) (μM) / Gram-positive bacteria / S. aureus 25923

[19] = system: Staphylococcus aureus ATCC 29213; details: values marked c, determined as previously described; cited from earlier work
From the text: Table 2 MIC and MBC of the peptides against bacteria. | column: MIC ^a (MBC ^b) (μM) / Gram-positive bacteria / S. aureus 29213

[20] = Clinically isolated EC183, 18 h
[21] = lowest concentration killing at least 99.9% of initial inoculum, three independent experiments
[22] = CLSI 2-fold microdilution, RPMI-1640, 28 °C for 48 h, visual, three independent experiments
[23] = lowest concentration killing at least 99.9% of initial inoculum, YPD agar, 48 h at 28 °C, three independent experiments

CC[C@H](C)[C@H](NC(=O)[C@H](Cc1c[nH]c2ccccc12)NC(=O)[C@H](CCCCN)NC(=O)[C@H](CC(C)C)NC(=O)[C@@H](NC(=O)[C@H](CCCCN)NC(=O)CNC(=O)[C@@H](NC(=O)[C@H](CCCCN)NC(=O)[C@H](CCCCN)NC(=O)[C@H](CC(C)C)NC(=O)[C@H](CCCNC(=N)N)NC(=O)[C@H](CCCCN)NC(=O)[C@H](CCCNC(=N)N)NC(=O)[C@@H](N)[C@@H](C)O)[C@@H](C)CC)C(C)C)C(N)=O [TI15] (H-TRKRLKKIGKVLKWI-NH2)
MIC S. typhi C77-31 ([1]; broth microdilution, MHB, ~1 × 10^5 CFU/ml, 18 h at 37 °C, visual): 8 µM (≈ 14.9 µg/mL)
MBC S. typhi C77-31 [1]: 32 µM (≈ 59.7 µg/mL)
MBC S. epidermidis 12228 [2]: 64 µM (≈ 119 µg/mL)
MIC S. epidermidis 12228 [2]: 32 µM (≈ 59.7 µg/mL)
MBC E. coli 25922 ([3]; ATCC 25922, 18 h): 16 µM (≈ 29.9 µg/mL)
MIC E. coli 25922 ([3]; ATCC 25922, 18 h): 8 µM (≈ 14.9 µg/mL)
MBC E. coli EC183 [4, 20]: 4 µM (≈ 7.47 µg/mL)
MIC E. coli EC183 [4, 20]: 2 µM (≈ 3.73 µg/mL)
MBC B. subtilis 63501 ([5]; CMCC 63501, 18 h): 4 µM (≈ 7.47 µg/mL)
MIC B. subtilis 63501 ([5]; CMCC 63501, 18 h): 2 µM (≈ 3.73 µg/mL)
MBC E. coli 1005 (Escherichia coli UB1005 [6]; UB1005, 18 h): 8 µM (≈ 14.9 µg/mL)
MIC E. coli 1005 (Escherichia coli UB1005 [6]; UB1005, 18 h): 4 µM (≈ 7.47 µg/mL)
MBC S. aureus 29213 ([7]; ATCC 29213, 18 h): 128 µM (≈ 239 µg/mL)
MIC S. aureus 29213 ([7]; ATCC 29213, 18 h): 32 µM (≈ 59.7 µg/mL)
MBC S. aureus 25923 [8]: 128 µM (≈ 239 µg/mL)
MIC S. aureus 25923 [8]: 32 µM (≈ 59.7 µg/mL)
MFC C. albicans CA276 ([9]; CA276 (clinical isolate, 48 h)): 128 µM (≈ 239 µg/mL)
MIC C. albicans CA276 ([9]; CA276 (clinical isolate, 48 h)): 128 µM (≈ 239 µg/mL)
MFC C. albicans 2.2086 ([10]; CGMCC 2.2086, 48 h): 64 µM (≈ 119 µg/mL)
MIC C. albicans 2.2086 ([10]; CGMCC 2.2086, 48 h): 64 µM (≈ 119 µg/mL)
MFC ([11]; CGMCC 2.1975, 48 h, read-out: MFC C. tropicalis 2.1975): 4 µM (≈ 7.47 µg/mL)
MIC ([11]; CGMCC 2.1975, 48 h, read-out: MIC C. tropicalis 2.1975): 2 µM (≈ 3.73 µg/mL)
MFC ([12]; CGMCC 2.1857, 48 h, read-out: MFC C. krusei 2.1857): 16 µM (≈ 29.9 µg/mL)
MIC ([12]; CGMCC 2.1857, 48 h, read-out: MIC C. krusei 2.1857): 8 µM (≈ 14.9 µg/mL)

CC[C@H](C)[C@H](NC(=O)CN)C(=O)NCC(=O)N[C@@H](C)C(=O)N[C@H](C(=O)N[C@@H](CC(C)C)C(=O)N[C@@H](CCCCN)C(=O)N[C@H](C(=O)N[C@@H](CC(C)C)C(=O)N[C@H](C(=O)N[C@H](C(=O)NCC(=O)N[C@@H](CC(C)C)C(=O)N1CCC[C@H]1C(=O)N[C@@H](C)C(=O)N[C@@H](CC(C)C)C(=O)N[C@H](C(=O)N[C@@H](CO)C(=O)N[C@@H](Cc1c[nH]c2ccccc12)C(=O)N[C@H](C(=O)N[C@@H](CCCCN)C(=O)N[C@@H](CCCNC(=N)N)C(=O)N[C@@H](CCCCN)C(=O)N[C@@H](CCCNC(=N)N)C(=O)N[C@@H](CCC(N)=O)C(=O)N[C@@H](CCC(N)=O)C(N)=O)[C@@H](C)CC)[C@@H](C)CC)[C@@H](C)O)[C@@H](C)O)C(C)C)C(C)C [melittin, reference compound]
GM (geometric mean of MIC values) Fungi [13]: 3.36 µM
MIC S. epidermidis 12228 [14]: 0.5 µM (≈ 1.42 µg/mL)
MIC E. coli 25922 [15]: 2 µM (≈ 5.69 µg/mL)
MBC S. typhi C77-31 [1]: 2^c (2) μM
MBC E. coli 25922 ([3]; lowest concentration killing at least 99.9% of initial inoculum, plated on MHA after MIC incubation, three independent experiments): 4 µM (≈ 11.4 µg/mL)
MIC E. coli EC183 ([4]; broth microdilution, MHB, ~1 × 10^5 CFU/ml, 18 h at 37 °C, visual, three independent experiments): 2 µM (≈ 5.69 µg/mL)
MBC E. coli EC183 [4, 21]: 2 µM (≈ 5.69 µg/mL)
MBC B. subtilis 63501 [5, 21]: 2 µM (≈ 5.69 µg/mL)
MBC E. coli 1005 (Escherichia coli UB1005 [6]; [21]): 4 µM (≈ 11.4 µg/mL)
MBC S. aureus 29213 [7, 21]: 16 µM (≈ 45.5 µg/mL)
MIC S. typhi C77-31 [16]: 2^c (2) μM
MIC [9, 22]: 8 µM (≈ 22.8 µg/mL)
MFC [9, 23]: 16 µM (≈ 45.5 µg/mL)
MIC [10, 22]: 4 µM (≈ 11.4 µg/mL)
MFC [10, 23]: 8 µM (≈ 22.8 µg/mL)
MIC C. tropicalis 2.1975 [11, 22]: 2 µM (≈ 5.69 µg/mL)
MFC C. tropicalis 2.1975 [11, 23]: 2 µM (≈ 5.69 µg/mL)
MIC [12, 22]: 2 µM (≈ 5.69 µg/mL)
MFC [12, 23]: 4 µM (≈ 11.4 µg/mL)
MIC E. coli 1005 (Escherichia coli UB1005 [17]): 2 µM (≈ 5.69 µg/mL)
MIC S. aureus 25923 [18]: 8^c (8) μM
MIC S. aureus 29213 [19]: 8 µM (≈ 22.8 µg/mL)
